The source of these data is US20250136722A1, “CYTOTOXICITY TARGETING CHIMERAS” (GLAXOSMITHKLINE INTELLECTUAL PROPERTY DEVELOPMENT LIMITED, priority 2021, published 2025).

The target in test [1] is Anti-cotinine antibody (SEQ ID NO: 11 / SEQ ID NO: 12, rabbit variable region with human IgG1 Fc domain). In words: Binding of anti-cotinine antibody to ARM compounds by SPR, Biacore T200, 37° C. (Example 202). As to conditions: pH 7.4, rabbit variable region/human IgG1 Fc antibody captured on protein A. The procedure: Anti-cotinine antibodies having a heavy chain sequence of SEQ ID NO: 11 and a light chain sequence of SEQ ID NO: 12 (rabbit variable region with human IgG1 Fc domain containing a DE mutation (S239D/1332E)) were captured on one or more flow cells of a protein A sensor chip (Cytiva) using a Biacore T200 while reserving flow cell 1 as a reference. Following capture, a 3000 second wait step was included to reduce drift during compound analysis. ARM compounds of Formula (I) were then injected at 100 μL/min with 200 and 2000 second association and dissociation times. The entire experiment was run at 37° C. with running buffer containing 10 mM HEPES pH 7.4, 150 mM NaCl, 0.005% P20 and 1% DMSO. ARM compounds of Formula (I) were titrated with a top concentration of 200 nM using a 3-fold 5-point dilution series and a corresponding 5-injection buffer cycle was run for blank subtraction. Data were double referenced by subtracting the response of the reference flow cell from that of the antibody-containing flow cell and subsequently subtracting the referenced blank sensorgrams. Following compound analysis, the surface was regenerated using a 30 second injection of pH 1.5 glycine at a flow rate of 30 μL/min after which antibody was re-captured. The experiment was run using Biacore T200 control software and evaluated using Biacore T200 Evaluation software. Curves were fit with a 1:1 kinetic binding model to obtain kon(1/Ms), koff(1/s), Kd (M) determined as koff/kon, and residence time determined as 1/koff. (s).
Anti-cotinine antibody was tested for binding to ARMs compounds of Formula (I) of the invention in the above assay in or more experimental runs and the results are shown in Table 5 below. Affinity is reported as a pKd value. The pKd value is the negative log of the Kd value, wherein the Kd value is the dissociation constant measured in molar (M) as noted above. For compounds tested in more than one experimental run, the pKd value is reported as an average.

Test [2] concerns the target T1, CHOK1 cells engineered to overexpress human CCR2 (Homo sapiens, UniProt P41597).
T1 construct: expressed in transfected cells; host or cells: CHOK1 cells
In words: Antibody dependent cellular cytotoxicity (ADCC) reporter assay (Example 199). The test is classed as cell-based. As to conditions: with anti-cotinine antibody SEQ ID NO: 11/12; CHOK1-human CCR2 target cells, Jurkat FcγRIIIa NFAT-luciferase reporter cells; 12-18 hours; read-out: ADCC Reporter Assay pEC50 (converted). Summed up: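 CHOK1-hCCR2 target cells are co-incubated for 12–18 h with Jurkat FcγRIIIa/NFAT-luciferase reporter cells, ARM compound (1 pM–10 μM) and anti-cotinine antibody with a DE-mutant human IgG1 Fc (0.01–200 μg/mL). Luminescence is expressed as signal:background against no-compound wells; EC50 comes from nonlinear fit and is reported as pEC50, averaged across runs.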
On the technique in general: A reporter such as luciferase makes a cellular process visible.

Values joined by “and” are separate entries in the source; they are usually repeats but may differ in a detail not shown here. Equal entries are not always repeated.

Regarding `CC(C)N(C)[C@@H]1CC[C@H](N2CC[C@H](Nc3ncnc4ccc(C(F)(F)F)cc34)C2=O)[C@H](NC(=O)C2CCN(C3CCN(C(=O)CCCCCCCCCNC(=O)[C@@H]4CC(=O)N(C)[C@H]4c4cccnc4)CC3)CC2)C1` [Example 157], in test [1], the “pKd of Antibody for ARM Compound of Formula (I)” value (“pKd of Antibody” for short) turned out to be 10.135. Further, in test [2], the EC50 is 200 pM.

For the molecule `CC(C)N(C)[C@@H]1CC[C@H](N2CC[C@H](Nc3ncnc4ccc(C(F)(F)F)cc34)C2=O)[C@H](NC(=O)COCCNC(=O)CCOCCNC(=O)COCCNC(=O)[C@H]2CC(=O)N(C)[C@@H]2c2cccnc2)C1` [Example 104, (2S,3S)-N-(18-(((1R,2S,5R)-5-(Isopropyl(methyl)amino)-2-((S)-2-oxo-3-((6-(trifluoromethyl)quinazolin-4-yl)amino)pyrrolidin-1-yl)cyclohexyl)amino)-5,12,18-trioxo-3,9,16-trioxa-6,13-diazaoctadecyl)-1-methyl-5-oxo-2-(pyridin-3-yl)pyrrolidine-3-carboxamide], the “pKd of Antibody” value in test [1] stood at 9.051. Also, in test [2], the EC50 was 2280 pM.

Take `CC(C)N(C)[C@@H]1CC[C@H](N2CC[C@H](Nc3ncnc4ccc(C(F)(F)F)cc34)C2=O)[C@H](NC(=O)[C@H]2CC[C@@H](NC(=O)COCCOCCNC(=O)CNC(=O)[C@H]3CC(=O)N(C)[C@@H]3c3cccnc3)CC2)C1` [Example 171, (2S,3S)-N-(2-((2-(2-(2-(((1S,4s)-4-(((1R,2S,5R)-5-(Isopropyl(methyl)amino)-2-((S)-2-oxo-3-((6-(trifluoromethyl)quinazolin-4-yl)amino)pyrrolidin-1-yl)cyclohexyl)carbamoyl)cyclohexyl)amino)-2-oxoethoxy)ethoxy)ethyl)amino)-2-oxoethyl)-1-methyl-5-oxo-2-(pyridin-3-yl)pyrrolidine-3-carboxamide]: the “pKd of Antibody” value in test [1] was 8.7865. Further, in test [2], the EC50 was 802 pM.

On to `CN1C(=O)C[C@H](C(=O)NCC(=O)NCCOCCOCCC(=O)N[C@H]2CC[C@@H](C(=O)N[C@@H]3C[C@H](NC(C)(C)C)CC[C@@H]3N3CC[C@H](Nc4ncnc5ccc(C(F)(F)F)cc45)C3=O)CC2)[C@H]1c1cccnc1` [Example 65], for which the “pKd of Antibody” value in test [1] stood at 8.648. The EC50 in test [2] is 1400 pM and 498 pM.

As to `CC(C)N(C)[C@@H]1CC[C@H](N2CC[C@H](Nc3ncnc4ccc(C(F)(F)F)cc34)C2=O)[C@H](NC(=O)[C@H]2CC[C@@H](NC(=O)CNC(=O)CCOCCOCCNC(=O)[C@H]3CC(=O)N(C)[C@@H]3c3cccnc3)CC2)C1` [Example 83], in test [1], the “pKd of Antibody” value was found to be 9.302. Besides, the EC50 in test [2] is 269 pM.

With `CC(C)N(C)[C@@H]1CC[C@H](N2CC[C@H](Nc3ncnc4ccc(C(F)(F)F)cc34)C2=O)[C@H](NC(=O)CCNC2CCC3(CC2)CCN(CCCNC(=O)[C@H]2CC(=O)N(C)[C@@H]2c2cccnc2)CC3)C1` [Example 138, (2S,3S)-N-(3-(9-((3-(((1R,2S,5R)-5-(Isopropyl(methyl)amino)-2-((S)-2-oxo-3-((6-(trifluoromethyl)quinazolin-4-yl)amino)pyrrolidin-1-yl)cyclohexyl)amino)-3-oxopropyl)amino)-3-azaspiro[5.5]undecan-3-yl)propyl)-1-methyl-5-oxo-2-(pyridin-3-yl)pyrrolidine-3-carboxamide], the “pKd of Antibody” value in test [1] is 9.0865. The EC50 in test [2] was 3980 pM.

On to `CC(C)N(C)[C@@H]1CC[C@H](N2CC[C@H](Nc3ncnc4ccc(C(F)(F)F)cc34)C2=O)[C@H](NC(=O)CCOCCNC(=O)[C@H]2CC[C@@H](NC(=O)CCOCCNC(=O)[C@H]3CC(=O)N(C)[C@@H]3c3cccnc3)CC2)C1` [Example 110], for which the “pKd of Antibody” value in test [1] worked out at 8.9085. The EC50 in test [2] is 167 pM.

With `CC(C)N(C)[C@@H]1CC[C@H](N2CC[C@H](Nc3ncnc4ccc(C(F)(F)F)cc34)C2=O)[C@H](NC(=O)COCCNC(=O)COCCNC(=O)CCOCCNC(=O)[C@H]2CC(=O)N(C)[C@@H]2c2cccnc2)C1` [Example 151, (2S,3S)-N-(1-(((1R,2S,5R)-5-(Isopropyl(methyl)amino)-2-((S)-2-oxo-3-((6-(trifluoromethyl)quinazolin-4-yl)amino)pyrrolidin-1-yl)cyclohexyl)amino)-1,7,13-trioxo-3,9,16-trioxa-6,12-diazaoctadecan-18-yl)-1-methyl-5-oxo-2-(pyridin-3-yl)pyrrolidine-3-carboxamide], the “pKd of Antibody” value in test [1] was found to be 9.0755. The EC50 in test [2] is 3030 pM.

Take `CC(C)N(C)[C@@H]1CC[C@H](N2CC[C@H](Nc3ncnc4ccc(C(F)(F)F)cc34)C2=O)[C@H](NC(=O)COCCNC(=O)CCOCCOCCNC(=O)CCNC(=O)[C@H]2CC(=O)N(C)[C@@H]2c2cccnc2)C1` [Example 50]: in test [1], the “pKd of Antibody” value is reported as 9.1485. Also, in test [2], the EC50 was 1410 pM.

As for `CC(C)N(C)[C@@H]1CC[C@H](N2CC[C@H](Nc3ncnc4ccc(C(F)(F)F)cc34)C2=O)[C@H](NC(=O)[C@H]2CC[C@@H](NC(=O)CCCC(=O)NCCCC(=O)NCCCNC(=O)[C@H]3CC(=O)N(C)[C@@H]3c3cccnc3)CC2)C1` [Example 56, N-((1S,4s)-4-(((1R,2S,5R)-5-(Isopropyl(methyl)amino)-2-((S)-2-oxo-3-((6-(trifluoromethyl)quinazolin-4-yl)amino)pyrrolidin-1-yl)cyclohexyl)carbamoyl)cyclohexyl)-N^5-(4-((3-((2S,3S)-1-methyl-5-oxo-2-(pyridin-3-yl)pyrrolidine-3-carboxamido)propyl)amino)-4-oxobutyl)glutaramide], the “pKd of Antibody” value in test [1] worked out at 9.3185. In addition, the EC50 in test [2] was 655 pM and 128 pM.

Take `CC(C)N(C)[C@@H]1CC[C@H](N2CC[C@H](Nc3ncnc4ccc(C(F)(F)F)cc34)C2=O)[C@H](NC(=O)[C@H]2CC[C@H](CNC(=O)CCOCCOCCOCCNC(=O)[C@H]3CC(=O)N(C)[C@@H]3c3cccnc3)CC2)C1` [Example 32]: the “pKd of Antibody” value in test [1] is on record as 9.1825. Also, the EC50 in test [2] was 1070 pM and 593 pM.

In the case of `CC(C)N(C)[C@@H]1CC[C@H](N2CC[C@H](Nc3ncnc4ccc(C(F)(F)F)cc34)C2=O)[C@H](NC(=O)COCCNC(=O)CCOCCNC(=O)CCOCCNC(=O)[C@H]2CC(=O)N(C)[C@@H]2c2cccnc2)C1` [Example 47], the “pKd of Antibody” value in test [1] turned out to be 9.051. In addition, the EC50 in test [2] is 2840 pM.

In the case of `CC(C)N(C)[C@@H]1CC[C@H](N2CC[C@H](Nc3ncnc4ccc(C(F)(F)F)cc34)C2=O)[C@H](NC(=O)CCOCCNC(=O)COCCNC(=O)CCOCCNC(=O)[C@H]2CC(=O)N(C)[C@@H]2c2cccnc2)C1` [Example 163, (2S,3S)-N-(19-(((1R,2S,5R)-5-(Isopropyl(methyl)amino)-2-((S)-2-oxo-3-((6-(trifluoromethyl)quinazolin-4-yl)amino)pyrrolidin-1-yl)cyclohexyl)amino)-6,12,19-trioxo-3,10,16-trioxa-7,13-diazanonadecyl)-1-methyl-5-oxo-2-(pyridin-3-yl)pyrrolidine-3-carboxamide], the “pKd of Antibody” value in test [1] amounted to 9.07. The EC50 in test [2] is 631 pM.
